US20240398812A1 (Caraway Therapeutics, Inc., priority 2021, published 2024)

Tests used:
TRPML3 = biological target: T1, TRPML3 (Homo sapiens, UniProt Q8TDD5); test: Fluorescent TRPML3 assay (as for TRPML1); format: cell-based; details: Table 3, compounds 201-283
T1 construct: expressed in transfected cells
T1 sequence (Q8TDD5 1-553): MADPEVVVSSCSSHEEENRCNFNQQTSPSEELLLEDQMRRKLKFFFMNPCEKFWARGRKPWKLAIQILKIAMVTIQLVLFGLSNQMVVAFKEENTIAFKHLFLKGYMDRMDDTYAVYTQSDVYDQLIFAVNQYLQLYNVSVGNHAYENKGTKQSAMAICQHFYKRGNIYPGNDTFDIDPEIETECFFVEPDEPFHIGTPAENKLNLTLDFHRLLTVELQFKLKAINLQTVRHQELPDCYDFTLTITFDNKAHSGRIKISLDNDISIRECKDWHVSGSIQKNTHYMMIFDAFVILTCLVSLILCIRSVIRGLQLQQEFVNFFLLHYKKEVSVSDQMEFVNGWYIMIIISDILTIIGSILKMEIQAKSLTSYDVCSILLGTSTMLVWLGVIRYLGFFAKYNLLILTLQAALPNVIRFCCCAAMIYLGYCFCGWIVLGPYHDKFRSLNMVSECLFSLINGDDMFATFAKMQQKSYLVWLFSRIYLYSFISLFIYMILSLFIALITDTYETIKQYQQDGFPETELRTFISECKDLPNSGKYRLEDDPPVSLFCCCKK
Outline: (§1)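 EC50 came from non-linear regression of percent activity, set against on-plate positive and negative controls, using Fluo4 fluorescence (ex 480, em 540 nm). Compounds ran in triplicate from 6 nM to 20 µM final in half-log steps. Doxycycline-induced (0.5 ug/mL) HEK-293 Trex cells expressing surface-directed mutant channel were in 10 mM calcium Ringer's.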

human TRPML1 = human TRPML1 (Homo sapiens, UniProt Q9GZU1); test: Fluorescent TRPML1 assay (Fluo4-AM calcium fluorescence, HEK-293 Trex cells); format: cell-based; details: Table 3, compounds 201-283
Chain of human TRPML1 (Q9GZU1 whole entry L15A/L16A/L577A/L578A, form open): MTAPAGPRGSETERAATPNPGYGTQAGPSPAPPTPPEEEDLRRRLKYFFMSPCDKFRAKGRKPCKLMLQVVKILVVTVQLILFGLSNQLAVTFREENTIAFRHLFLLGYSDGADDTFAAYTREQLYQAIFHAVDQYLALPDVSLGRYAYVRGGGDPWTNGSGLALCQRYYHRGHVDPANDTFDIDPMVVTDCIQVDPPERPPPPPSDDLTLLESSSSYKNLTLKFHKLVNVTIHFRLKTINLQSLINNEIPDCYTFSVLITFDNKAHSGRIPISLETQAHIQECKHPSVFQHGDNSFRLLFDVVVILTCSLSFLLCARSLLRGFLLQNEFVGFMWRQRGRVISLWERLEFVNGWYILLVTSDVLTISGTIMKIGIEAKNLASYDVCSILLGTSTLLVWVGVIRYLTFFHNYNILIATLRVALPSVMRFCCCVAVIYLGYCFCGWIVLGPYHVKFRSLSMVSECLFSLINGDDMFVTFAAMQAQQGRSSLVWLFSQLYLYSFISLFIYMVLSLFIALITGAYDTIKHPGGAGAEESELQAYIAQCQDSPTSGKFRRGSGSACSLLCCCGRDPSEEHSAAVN
Outline: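 Agonist EC50 from non-linear regression of percent activity versus on-plate controls, calcium signal read at 480/540 nm. Compounds spanned 6 nM–20 μM final in triplicate. Cells: doxycycline-induced HEK-293 Trex with cell-surface human TRPML1 mutant, Fluo4-AM loaded, in Ringer's containing 10 mM calcium.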

TRPML2 = biological target: T2, TRPML2 (Homo sapiens, UniProt Q8IZK6); test: Fluorescent TRPML2 assay (as for TRPML1); format: cell-based; details: Table 3, compounds 201-283
T2 construct: expressed in transfected cells
T2 sequence (Q8IZK6 1-566): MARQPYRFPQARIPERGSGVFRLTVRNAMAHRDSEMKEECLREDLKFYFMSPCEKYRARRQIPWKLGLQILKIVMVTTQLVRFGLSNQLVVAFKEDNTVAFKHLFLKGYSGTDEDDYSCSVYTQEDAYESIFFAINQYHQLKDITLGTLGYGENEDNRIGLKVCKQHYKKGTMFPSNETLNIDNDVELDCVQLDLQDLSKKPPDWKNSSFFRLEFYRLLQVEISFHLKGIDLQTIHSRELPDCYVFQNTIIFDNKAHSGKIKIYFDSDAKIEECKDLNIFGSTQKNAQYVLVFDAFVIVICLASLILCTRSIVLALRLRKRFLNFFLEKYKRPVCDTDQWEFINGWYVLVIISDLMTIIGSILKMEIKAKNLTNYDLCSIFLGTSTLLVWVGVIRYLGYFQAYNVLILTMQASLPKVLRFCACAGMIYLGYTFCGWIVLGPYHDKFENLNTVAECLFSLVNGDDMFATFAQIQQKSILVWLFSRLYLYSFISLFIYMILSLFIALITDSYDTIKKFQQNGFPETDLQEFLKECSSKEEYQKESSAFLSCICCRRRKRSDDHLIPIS
Outline: as §1

TRPMLs = details: high concentrations needed; HEK293 cells expressing plasma-membrane TRPML1; cited from earlier work

| Structure (SMILES) | EC50 (TRPML3) [nM] | EC50 (human TRPML1) [nM] | EC50 (TRPML2) [nM] | concentration needed to effectively activate TRPMLs (TRPMLs) [µM] |
| --- | --- | --- | --- | --- |
| COC(C)(C)C(=O)N1CCN(c2ncnc3c2c(N2CCC2)cn3-c2cc(C#N)ccn2)C[C@H]1C [Compound 269, (R)-2-(5-(azetidin-1-yl)-4-(4-(2-methoxy-2-methylpropanoyl)-3-methylpiperazin-1-yl)-7H-pyrrolo[2,3-d]pyrimidin-7-yl)isonicotinonitrile] | < 100 | < 100 | < 100 | – |
| C[C@@H]1CN(c2ncnc3c2c(N2CCC2)cn3-c2cc(C#N)ccn2)CCN1C(=O)C1(F)CC1 [Compound 270, (R)-2-(5-(azetidin-1-yl)-4-(4-(1-fluorocyclopropane-1-carbonyl)-3-methylpiperazin-1-yl)-7H-pyrrolo[2,3-d]pyrimidin-7-yl)isonicotinonitrile] | < 100 | < 100 | 100 to 500 | – |
| C[C@@H]1CN(c2ncnc3c2c(N2CCC2)cn3-c2cc(C#N)ccn2)CCN1C(=O)C(C)(C)C [Compound 271, (R)-2-(5-(azetidin-1-yl)-4-(3-methyl-4-pivaloylpiperazin-1-yl)-7H-pyrrolo[2,3-d]pyrimidin-7-yl)isonicotinonitrile] | < 100 | < 100 | < 100 | – |
| CC(C)CC(=O)N1CCN(c2ncnc3c2c(N2CCC2)cn3-c2cc(C#N)ccn2)C[C@H]1C [Compound 272, (R)-2-(5-(azetidin-1-yl)-4-(3-methyl-4-(3-methylbutanoyl)piperazin-1-yl)-7H-pyrrolo[2,3-d]pyrimidin-7-yl)isonicotinonitrile] | < 100 | < 100 | 100 to 500 | – |
| C[C@@H]1CN(c2ncnc3c2c(N2CCC2)cn3-c2cc(C#N)ccn2)[C@@H](C)CN1C(=O)C(C)(C)C [Compound 276, 2-(5-(azetidin-1-yl)-4-((2S,5R)-2,5-dimethyl-4-pivaloylpiperazin-1-yl)-7H-pyrrolo[2,3-d]pyrimidin-7-yl)isonicotinonitrile] | < 100 | < 100 | 100 to 500 | – |
| COC(C)(C)C(=O)N1C[C@H](C)N(c2ncnc3c2c(N2CCC2)cn3-c2cccc(F)c2)C[C@H]1C [Compound 277, 1-((2R,5S)-4-(5-(azetidin-1-yl)-7-(3-fluorophenyl)-7H-pyrrolo[2,3-d]pyrimidin-4-yl)-2,5-dimethylpiperazin-1-yl)-2-methoxy-2-methylpropan-1-one] | 100 to 500 | < 100 | 500 to 2000 | – |
| C[C@H]1CN(C(=O)C2(F)CC2)CCN1c1ncnc2c1c(N1CCCC1)cn2-c1cccc(Cl)c1 [Compound 278, (S)-(4-(7-(3-chlorophenyl)-5-(pyrrolidin-1-yl)-7H-pyrrolo[2,3-d]pyrimidin-4-yl)-3-methylpiperazin-1-yl)(1-fluorocyclopropyl)methanone] | 100 to 500 | < 100 | 100 to 500 | – |
| C[C@@H]1CN(c2ncnc3c2c(N2CCCC2)cn3-c2cccc(Cl)c2)CCN1C(=O)C1(F)CC1 [Compound 279, (R)-(4-(7-(3-chlorophenyl)-5-(pyrrolidin-1-yl)-7H-pyrrolo[2,3-d]pyrimidin-4-yl)-2-methylpiperazin-1-yl)(1-fluorocyclopropyl)methanone] | 500 to 2000 | 100 to 500 | 500 to 2000 | – |
| C[C@@H]1CN(c2ncnc3c2c(N2CCCC2)cn3-c2cccc(Cl)c2)[C@@H](C)CN1C(=O)C1(F)CC1 [Compound 280, ((2R,5S)-4-(7-(3-chlorophenyl)-5-(pyrrolidin-1-yl)-7H-pyrrolo[2,3-d]pyrimidin-4-yl)-2,5-dimethylpiperazin-1-yl)(1-fluorocyclopropyl)methanone] | 500 to 2000 | 100 to 500 | 500 to 2000 | – |
| COC(C)(C)C(=O)N1C[C@H](C)N(c2ncnc3c2c(-c2ccccc2)cn3-c2cc(C#N)ccn2)C[C@H]1C [Compound 282, 2-(4-((2S,5R)-4-(2-methoxy-2-methylpropanoyl)-2,5-dimethylpiperazin-1-yl)-5-phenyl-7H-pyrrolo[2,3-d]pyrimidin-7-yl)isonicotinonitrile] | < 100 | < 100 | < 100 | – |
| COC1(C(=O)N2C[C@H](C)N(c3ncnc4c3c(-c3ccccc3)cn4-c3cc(C#N)ccn3)C[C@H]2C)CC1 [Compound 283, 2-(4-((2S,5R)-4-(1-methoxycyclopropane-1-carbonyl)-2,5-dimethylpiperazin-1-yl)-5-phenyl-7H-pyrrolo[2,3-d]pyrimidin-7-yl)isonicotinonitrile] | < 100 | < 100 | 100 to 500 | – |
| CC1CC(C)(C)N(C(=O)CN2C(=O)c3ccccc3C2=O)c2ccccc21 (stereo not shown) [ML-SA1] | – | – | – | ~10 |
